Reference: the supplement of paper PMC10733146

Tests used:
Experiment in all cases: viability relative to DMSO control (fraction); higher = less drug effect (more viable cells)
Details in all cases: 48 h
[1] = test system: primary MCL patient cells (S041)
How it was run: (§1)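 Using 384-well plates with compounds already plated at five concentrations, one well per concentration, 4 × 10^4 primary mononuclear tumour cells were added per well. Cells were Ficoll-isolated from blood or bone marrow or came from processed lymph node, fresh or cryopreserved. They were kept for 48 h at 37 °C and 5% CO2 in RPMI-1640 supplemented with penicillin/streptomycin, L-glutamine and human serum, and viability was read as CellTiter-Glo luminescence relative to the median of 16 inner DMSO wells.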

[2] = test system: primary T-PLL patient cells (S008)
How it was run: as §1

[3] = test system: primary BL patient cells (S005)
How it was run: as §1

[4] = test system: primary FL patient cells (S022)
How it was run: as §1

[5] = test system: primary AML patient cells (S079)
How it was run: as §1

[6] = test system: primary DLBCL patient cells (S082)
How it was run: as §1

[7] = test system: primary MCL patient cells (S068)
How it was run: as §1

[8] = test system: primary MCL patient cells (S053)
How it was run: as §1

[9] = test system: primary AML patient cells (S071)
How it was run: as §1

[10] = test system: primary AML patient cells (S055)
How it was run: as §1

[11] = test system: primary CLL patient cells (S031)
How it was run: as §1

[12] = test system: primary FL patient cells (S087)
How it was run: as §1

[13] = test system: primary AML patient cells (S072)
How it was run: as §1

[14] = test system: primary B-PLL patient cells (S016)
How it was run: as §1

[15] = test system: primary AML patient cells (S056)
How it was run: as §1

[16] = test system: primary MCL patient cells (S063)
How it was run: as §1

[17] = test system: primary AML patient cells (S060)
How it was run: as §1

[18] = test system: primary ALL patient cells (S048)
How it was run: as §1

[19] = test system: primary ALL patient cells (S088)
How it was run: as §1

[20] = test system: primary AML patient cells (S009)
How it was run: as §1

In the case of CC(=O)Nc1cccc(-n2c(=O)n(C3CC3)c(=O)c3c(Nc4ccc(I)cc4F)n(C)c(=O)c(C)c32)c1 [Trametinib], the viability ([1]; 0.0008 µM) is reported as 0.989, the viability ([1]; 0.004 µM) is reported as 1.04 and the viability ([1]; 0.02 µM) is reported as 1.03. It also gave a viability ([1]; 0.1 µM) of 1.01, a viability ([1]; 0.5 µM) of 1.02 and a viability ([2]; 0.0008 µM) of 0.965. It also gave a viability ([2]; 0.004 µM) of 1.05, a viability ([2]; 0.02 µM) of 0.955 and a viability ([2]; 0.1 µM) of 1.07. The viability ([2]; 0.5 µM) was 0.905, the viability ([3]; 0.0008 µM) was 0.943 and the viability ([3]; 0.004 µM) was 0.964. The viability ([3]; 0.02 µM) was 1.01, the viability ([3]; 0.1 µM) was 0.984 and the viability ([3]; 0.5 µM) was 0.912. It also gave a viability ([4]; 0.0008 µM) of 0.845, a viability ([4]; 0.004 µM) of 0.986 and a viability ([4]; 0.02 µM) of 0.851. For the same molecule, the viability ([4]; 0.1 µM) was 1.18, the viability ([4]; 0.5 µM) was 0.824 and the viability ([5]; 0.0008 µM) was 0.703. It also gave a viability ([5]; 0.004 µM) of 0.655, a viability ([5]; 0.02 µM) of 0.556 and a viability ([5]; 0.1 µM) of 0.538. For the same molecule, the viability ([5]; 0.5 µM) was 0.504, the viability ([6]; 0.0008 µM) was 0.835 and the viability ([6]; 0.004 µM) was 0.828. The viability ([6]; 0.02 µM) was 0.727, the viability ([6]; 0.1 µM) was 0.702 and the viability ([6]; 0.5 µM) was 0.651. It also gave a viability ([7]; 0.0008 µM) of 0.921, a viability ([7]; 0.004 µM) of 0.8 and a viability ([7]; 0.02 µM) of 0.791. The viability ([7]; 0.1 µM) was 0.727, the viability ([7]; 0.5 µM) was 0.7 and the viability ([8]; 0.0008 µM) was 0.885. It also gave a viability ([8]; 0.004 µM) of 0.899, a viability ([8]; 0.02 µM) of 0.818 and a viability ([8]; 0.1 µM) of 0.806. For the same molecule, the viability ([8]; 0.5 µM) was 0.733, the viability ([9]; 0.0008 µM) was 0.8 and the viability ([9]; 0.004 µM) was 0.789. For the same molecule, the viability ([9]; 0.02 µM) was 0.757, the viability ([9]; 0.1 µM) was 0.744 and the viability ([9]; 0.5 µM) was 0.708. It also gave a viability ([10]; 0.0008 µM) of 0.797, a viability ([10]; 0.004 µM) of 0.582 and a viability ([10]; 0.02 µM) of 0.585. It also gave a viability ([10]; 0.1 µM) of 0.559, a viability ([10]; 0.5 µM) of 0.558 and a viability ([11]; 0.0008 µM) of 0.648. The viability ([11]; 0.004 µM) was 0.49, the viability ([11]; 0.02 µM) was 0.379 and the viability ([11]; 0.1 µM) was 0.349. For the same molecule, the viability ([11]; 0.5 µM) was 0.311, the viability ([12]; 0.0008 µM) was 0.951 and the viability ([12]; 0.004 µM) was 0.9. For the same molecule, the viability ([12]; 0.02 µM) was 0.92, the viability ([12]; 0.1 µM) was 0.903 and the viability ([12]; 0.5 µM) was 0.941. The viability ([13]; 0.0008 µM) was 0.907, the viability ([13]; 0.004 µM) was 0.859 and the viability ([13]; 0.02 µM) was 0.751. For the same molecule, the viability ([13]; 0.1 µM) was 0.732, the viability ([13]; 0.5 µM) was 0.69 and the viability ([14]; 0.0008 µM) was 0.939. It also gave a viability ([14]; 0.004 µM) of 1.05, a viability ([14]; 0.02 µM) of 0.986 and a viability ([14]; 0.1 µM) of 0.933. For the same molecule, the viability ([14]; 0.5 µM) was 0.885, the viability ([15]; 0.0008 µM) was 0.77 and the viability ([15]; 0.004 µM) was 0.66. For the same molecule, the viability ([15]; 0.02 µM) was 0.588, the viability ([15]; 0.1 µM) was 0.535 and the viability ([15]; 0.5 µM) was 0.514. For the same molecule, the viability ([16]; 0.0008 µM) was 0.991, the viability ([16]; 0.004 µM) was 0.973 and the viability ([16]; 0.02 µM) was 0.987. It also gave a viability ([16]; 0.1 µM) of 0.949, a viability ([16]; 0.5 µM) of 0.936 and a viability ([17]; 0.0008 µM) of 1.04. It also gave a viability ([17]; 0.004 µM) of 0.797, a viability ([17]; 0.02 µM) of 0.681 and a viability ([17]; 0.1 µM) of 0.657. For the same molecule, the viability ([17]; 0.5 µM) was 0.642, the viability ([18]; 0.0008 µM) was 0.818 and the viability ([18]; 0.004 µM) was 0.766. It also gave a viability ([18]; 0.02 µM) of 0.674, a viability ([18]; 0.1 µM) of 0.666 and a viability ([18]; 0.5 µM) of 0.592. It also gave a viability ([19]; 0.0008 µM) of 0.62, a viability ([19]; 0.004 µM) of 0.548 and a viability ([19]; 0.02 µM) of 0.545. The viability ([19]; 0.1 µM) was 0.503, the viability ([19]; 0.5 µM) was 0.504 and the viability ([20]; 0.0008 µM) was 1.09. The viability ([20]; 0.004 µM) was 1.17, the viability ([20]; 0.02 µM) was 1.24 and the viability ([20]; 0.1 µM) was 1.24. It also gave a viability ([20]; 0.5 µM) of 1.04.
With CS(=O)(=O)c1ccc(C(=O)Nc2ccc(Cl)c(-c3ccccn3)c2)c(Cl)c1 [Vismodegib] the viability ([1]; 0.024 µM) was 0.934, the viability ([1]; 0.12 µM) was 0.973 and the viability ([1]; 0.6 µM) was 0.935. It also gave a viability ([1]; 3 µM) of 0.969, a viability ([1]; 15 µM) of 0.984 and a viability ([2]; 0.024 µM) of 0.941. The viability ([2]; 0.12 µM) was 0.932, the viability ([2]; 0.6 µM) was 0.983 and the viability ([2]; 3 µM) was 0.938. The viability ([2]; 15 µM) was 0.926, the viability ([3]; 0.024 µM) was 1.12 and the viability ([3]; 0.12 µM) was 0.893. It also gave a viability ([3]; 0.6 µM) of 1.12, a viability ([3]; 3 µM) of 1.14 and a viability ([3]; 15 µM) of 0.824. It also gave a viability ([4]; 0.024 µM) of 0.868, a viability ([4]; 0.12 µM) of 0.958 and a viability ([4]; 0.6 µM) of 0.886. For the same molecule, the viability ([4]; 3 µM) was 0.911, the viability ([4]; 15 µM) was 0.971 and the viability ([5]; 0.024 µM) was 0.897. The viability ([5]; 0.12 µM) was 0.894, the viability ([5]; 0.6 µM) was 0.899 and the viability ([5]; 3 µM) was 0.871. It also gave a viability ([5]; 15 µM) of 0.818, a viability ([6]; 0.024 µM) of 0.89 and a viability ([6]; 0.12 µM) of 0.939. It also gave a viability ([6]; 0.6 µM) of 0.915, a viability ([6]; 3 µM) of 0.933 and a viability ([6]; 15 µM) of 1.07. The viability ([7]; 0.024 µM) was 0.891, the viability ([7]; 0.12 µM) was 0.929 and the viability ([7]; 0.6 µM) was 0.949. The viability ([7]; 3 µM) was 0.992, the viability ([7]; 15 µM) was 1.07 and the viability ([8]; 0.024 µM) was 0.915. It also gave a viability ([8]; 0.12 µM) of 0.932, a viability ([8]; 0.6 µM) of 0.893 and a viability ([8]; 3 µM) of 0.9. It also gave a viability ([8]; 15 µM) of 1.05, a viability ([9]; 0.024 µM) of 0.865 and a viability ([9]; 0.12 µM) of 0.899. It also gave a viability ([9]; 0.6 µM) of 0.879, a viability ([9]; 3 µM) of 0.906 and a viability ([9]; 15 µM) of 0.891. For the same molecule, the viability ([10]; 0.024 µM) was 0.914, the viability ([10]; 0.12 µM) was 0.927 and the viability ([10]; 0.6 µM) was 0.931. The viability ([10]; 3 µM) was 0.925, the viability ([10]; 15 µM) was 0.964 and the viability ([11]; 0.024 µM) was 0.85. The viability ([11]; 0.12 µM) was 0.996, the viability ([11]; 0.6 µM) was 0.889 and the viability ([11]; 3 µM) was 0.867. The viability ([11]; 15 µM) was 0.897, the viability ([12]; 0.024 µM) was 0.918 and the viability ([12]; 0.12 µM) was 0.898. For the same molecule, the viability ([12]; 0.6 µM) was 0.914, the viability ([12]; 3 µM) was 0.92 and the viability ([12]; 15 µM) was 0.929. For the same molecule, the viability ([13]; 0.024 µM) was 0.969, the viability ([13]; 0.12 µM) was 0.954 and the viability ([13]; 0.6 µM) was 0.903. It also gave a viability ([13]; 3 µM) of 0.902, a viability ([13]; 15 µM) of 0.927 and a viability ([14]; 0.024 µM) of 0.862. It also gave a viability ([14]; 0.12 µM) of 0.917, a viability ([14]; 0.6 µM) of 0.921 and a viability ([14]; 3 µM) of 0.857. It also gave a viability ([14]; 15 µM) of 0.92, a viability ([15]; 0.024 µM) of 0.986 and a viability ([15]; 0.12 µM) of 1.07. For the same molecule, the viability ([15]; 0.6 µM) was 0.913, the viability ([15]; 3 µM) was 0.783 and the viability ([15]; 15 µM) was 0.845. For the same molecule, the viability ([16]; 0.024 µM) was 0.93, the viability ([16]; 0.12 µM) was 0.956 and the viability ([16]; 0.6 µM) was 0.911. The viability ([16]; 3 µM) was 0.925, the viability ([16]; 15 µM) was 0.921 and the viability ([17]; 0.024 µM) was 0.945. For the same molecule, the viability ([17]; 0.12 µM) was 0.966, the viability ([17]; 0.6 µM) was 0.97 and the viability ([17]; 3 µM) was 0.971. It also gave a viability ([17]; 15 µM) of 0.997, a viability ([18]; 0.024 µM) of 0.921 and a viability ([18]; 0.12 µM) of 0.941. The viability ([18]; 0.6 µM) was 0.933, the viability ([18]; 3 µM) was 0.948 and the viability ([18]; 15 µM) was 1.1. It also gave a viability ([19]; 0.024 µM) of 0.762, a viability ([19]; 0.12 µM) of 0.764 and a viability ([19]; 0.6 µM) of 0.779. For the same molecule, the viability ([19]; 3 µM) was 0.797, the viability ([19]; 15 µM) was 0.862 and the viability ([20]; 0.024 µM) was 0.913. For the same molecule, the viability ([20]; 0.12 µM) was 0.918, the viability ([20]; 0.6 µM) was 0.944 and the viability ([20]; 3 µM) was 0.942. The viability ([20]; 15 µM) was 0.939.
